{"source": "paper PMC10791668", "about": "“Development of chia gum/alginate-polymer support for horseradish peroxidase immobilization and its application in phenolic removal” (Scientific Reports, 2024)", "system": "T1, Horseradish peroxidase (HRP); soluble-HRP", "T1 construct": "gene PRXC1A; class III plant peroxidase", "test": "peroxidase assay, absorbance at […] nm, Lineweaver-Burk plot", "assay_type": "biochemical, Armoracia rusticana", "settings": "free soluble enzyme; co-substrate H2O2 (8 mM in the standard assay); 20 mM sodium acetate pH 5.5; temperature not stated", "data": [{"compound": "COc1ccccc1O", "note": "[guaiacol]", "values": [{"measurement": "Km", "result": 35.7, "unit": "mM"}]}]}
